Laboratory results reported in article PMC8305652, “Copper(II) Complexes Containing Natural Flavonoid Pomiferin Show Considerable In Vitro Cytotoxicity and Anti-inflammatory Effects” (International Journal of Molecular Sciences, 2021).

Legend:
[1] = system: caspase 3 (Casp-3) in THP-1 cells; assay: Western blotting of apoptosis-related proteins; format: cell-based, human; details: THP-1, complexes 4 µM, 24 h, Western blot; for proteolytically activated Casp-3 (verified by cleaved PARP-1): cisplatin 10 µM
Protocol: In addition to the above-mentioned methods, the Western blotting method was used to shed light on the mechanisms associated with caspase 3 activation in the THP-1 cells. Two and a half milliliters of floating THP-1 monocytes resuspended in a serum-free RPMI 1640 medium were seeded into 6-well plates at the concentration of 10^6 cells/mL. Two hours later, complexes 3 and 5 were added at the concentration level of 4 µM. After 24 h incubation, the cells were collected by centrifugation (3000 g/5 min/4 °C), washed by cold PBS and resuspended in an ice-cold lysis buffer (50 mM Tris-HCl pH 7.5, 1 mM EGTA, 1 mM EDTA, 1 mM sodium orthovanadate, 50 mM sodium fluoride, 5 mM sodium pyrophosphate, 270 mM sucrose) with Roche cOmplete protease inhibitors (Roche Diagnostics, Basel, Switzerland). The cell lysates were centrifuged at 3000 g/5 min/4 °C and supernatants were mixed with a 5x Laemmli buffer [containing 250 mM Tris-HCl pH 6.8, 10% (w/v) SDS, 30% (v/v) glycerol, 5% (v/v) β-mercaptoethanol, 0.04% (w/v) bromphenol blue] and incubated at 70 °C for 5 min. […] The membranes were incubated at 4 °C for 16 h with a primary anti-cleaved caspase 3 (p17) antibody at the dilution 1:1000 (Cell Signaling, Danvers, MA, USA; products No. 9664), and an Apoptosis WB Cocktail (Abcam, Cambridge, UK; product No. ab136812) at the dilution recommended by the provider to detect β-actin, cleaved poly-(ADP-ribose) polymerase (PARP) and pro-caspase 3. After washing in a TBST buffer, the secondary anti-rabbit IgG antibody (Sigma-Aldrich, product No. A0545) was diluted 1:2500 and applied to the membranes, which were then incubated for 1 h at the laboratory temperature (~22 °C). The amount of bound secondary antibody was determined using an ECL reagent (Bio-Rad, Hercules, CA, USA). Chemiluminescence was detected using a Syngene PXi4 chemiluminescence imaging system (Cambridge, UK).

osteosarcoma (HOS) = assay: in vitro cytotoxicity, MTT assay; format: cell-based, human; details: mean ± SD, at least three independent experiments
A2780 cells [2] = assay: Annexin V/propidium iodide cell death assay, flow cytometry; format: cell-based, human; details: A2780, 15 µM, 24 h; mean of three experiments
Protocol: Both methods were performed according to the manufacturers’ protocols with 1 modification in the caspase induction assay, which was the use of the CellEvent^TM Caspase-3/7 Green Detection Reagent only for detection of Caspase-3/7 activation. […] After 24 h, the cells were washed once with PBS (0.1 M, pH 7.4), detached with trypsin (0.25% in ethylenediaminetetraacetic acid (EDTA), Sigma-Aldrich), resuspended in 500 µL of the culture medium and divided into 2 separate tubes, the first for apoptosis assay and the second one for caspase activation analysis. After staining with appropriate dyes, samples were analyzed on a BD FACSVerse flow cytometer (Becton Dickinson, Franklin Lakes, NJ, USA) in 3 separate experiments, while at least 10^4 events were recorded for each sample prepared in duplicate.

A2780 cells [3] = assay: cell cycle analysis by flow cytometry; format: cell-based, human; details: A2780, 15 µM, 24 h; untreated control 21.4 ± 0.8%
Protocol: Human ovarian cancer cell line A2780 (Sigma, Darmstadt, Germany) were used for this study. Cells were cultivated at 37 °C under a 5% CO2 atmosphere in an RPMI 1640 medium (Sigma Aldrich, Darmstadt, Germany) supplemented with (the final concentrations in medium): L-glutamine (2 mM), fetal bovine serum (FBS, 10%) and PenStrep (5 U penicillin, 50 µg streptomycin/mL).
After 24 h, the cells were washed once with PBS (0.1 M, pH 7.4) and cell cycle analysis was performed according to the protocol of BD Cycletest^TM Plus DNA kit (Becton Dickinson, Franklin Lakes, NJ, USA). Measurements were performed using BD FACSVerse flow cytometer (Becton Dickinson, Franklin Lakes, NJ, USA) in 3 independent experiments, each done in duplicate, while at least 5 × 10^3 events were recorded for each sample.

[4] = system: primary culture of human hepatocytes (Hep); assay: toxicity against primary culture of human hepatocytes; format: cell-based; details: tested range 0.1–100 μM
[5] = system: prostate adenocarcinoma (PC-3); assay: in vitro cytotoxicity, MTT assay; format: cell-based, human; details: mean ± SD, at least three independent experiments
Protocol: (§1) The testing was performed on the following human cancer cell lines: breast adenocarcinoma (MCF-7), osteosarcoma (HOS), lung adenocarcinoma (A549), prostate adenocarcinoma (PC-3), ovarian carcinoma (A2780), cisplatin-resistant ovarian carcinoma (A2780R) and colorectal adenocarcinoma (Caco-2) obtained from ATCC collection of cell lines and cultivated according to producer’s instructions.

[6] = system: breast adenocarcinoma (MCF-7); assay: in vitro cytotoxicity, MTT assay; format: cell-based, human; details: mean ± SD, at least three independent experiments
Protocol: as §1

[7] = system: ovarian carcinoma (A2780); assay: in vitro cytotoxicity, MTT assay; format: cell-based, human; details: mean ± SD, at least three independent experiments
Protocol: as §1

[8] = system: cisplatin-resistant ovarian carcinoma (A2780R); assay: in vitro cytotoxicity, MTT assay; format: cell-based, human; details: mean ± SD, at least three independent experiments
Protocol: as §1

[9] = system: lung adenocarcinoma (A549); assay: in vitro cytotoxicity, MTT assay; format: cell-based, human; details: mean ± SD, at least three independent experiments
Protocol: as §1

[10] = system: Ea.Hy 926 endothelial hybrid cells; design: method as in PMID 27936296; details: read-out: IC50 Ea.Hy 926 healthy endothelial hybrid cells; cited from earlier work
[11] = system: 518A2, Panc-1, MCF-7/Topo, KB-V1/Vbl, DLD-1, U-87 MG cancer cell lines; design: method as in PMID 27936296; details: range over cell lines; read-out: IC50 values on the mentioned cancer cell lines; cited from earlier work
[12] = system: NF-κB/AP-1 in THP-1-XBlue-MD2-CD14 cells; assay: LPS-stimulated NF-κB/AP-1 activity, SEAP reporter; format: cell-based, human; details: complexes applied at 200 nM and 50 nM, 1 h pre-treatment, read 24 h after LPS
Protocol: The activity of transcription factors NF-κB/AP-1 was evaluated using the THP-1-XBlue^TM-MD2-CD14 cell line [obtained from Invivogen (San Diego, CA, USA)], expressing an NF-κB/AP-1-inducible secreted embryonic alkaline phosphatase (SEAP) reporter gene, as was described previously. The complexes 1–5 were applied to the cells at the concentrations of 200 nM and 50 nM, pomiferin (at 200 nM), and a reference drug prednisone at 1 μM, respectively. Lipopolysaccharide (LPS) from E. coli 0111:B4 (Sigma-Aldrich) dissolved in PBS was used to trigger an inflammation-like reaction. The activity of the SEAP was determined by Quanti-Blue^TM reagent (Invivogen, San Diego, CA, USA) according to the manufacturer’s instructions 24 h after lipopolysaccharide stimulation. The activity of NF-κB/AP-1 was determined spectrophotometrically using the FLUOstar Omega microplate reader (BMG Labtech, Ortenberg, Germany) at 655 nm and compared with that of the vehicle.

THP-1 cells = assay: intracellular production of reactive oxygen species, DCFH2-DA; format: cell-based, human; details: THP-1, 200 nM, 23.5 h; pyocyanin 100 μM as radical-forming control
Protocol: THP-1 cells were used for the determination of the potential of tested compounds to initiate the intracellular ROS production, as was described previously with some minor modifications. Cells in serum-free RPMI 1640 medium without phenol red were seeded into black 96-well plates (5 × 10^4 cells/100 µL/well). After 2 h of incubation, the cells were treated with copper(II) complexes 1–5 at a concentration of 200 nM, and pyocyanin at a final concentration of 100 μM was added into control group to trigger production of reactive oxygen species (ROS), respectively. After the incubation at 37 °C for either 1.5 h or 23.5 h, dichlorofluorescin diacetate (DCFH2-DA) (5 μg/mL) was added and cells were kept under the same conditions hereafter. Thirty minutes later, fluorometric measurement of the fluorescent product DCF was conducted using a Tecan Infinite F200 microplate reader (Tecan, Männedorf, Switzerland) with λ(ex./em.) = 485/520 nm.

[13] = system: colorectal adenocarcinoma (Caco-2); assay: in vitro cytotoxicity, MTT assay; format: cell-based, human; details: mean ± SD, at least three independent experiments
[14] = system: THP-1 human monocytic leukemia cell line; assay: relative cell viability, WST-1; format: cell-based; details: serum-free medium, 24 h, six independent experiments
Protocol: The THP-1 human monocytic leukemia cell line was purchased from the European Collection of Cell Cultures (ECACC, Salisbury, UK). Cells were cultured in an RPMI 1640 medium containing stabilized 2 mM L-glutamine (Biosera, Nuaille, France) supplemented with the mixture of antibiotics [100 U/mL penicillin and […] (Biosera, Nuaille, France)], and 10% foetal bovine serum (FBS) (HyClone, Marlborough, MA, USA). The cells were kept in an incubator at 37 °C in an atmosphere of air containing 5% CO2 and 100% humidity.
The relative cell viability of floating monocytes THP-1 were determined after 24 h incubation in a serum-free medium with compounds 1–5 dissolved in N,N-dimethylformamide (DMF) at increasing concentrations (20–0.125 µM) by the cell proliferation reagent WST-1 (Roche, Basel, Switzerland) according to the manufacturer’s manual, as we described previously. The IC50 values were calculated from resultant viability curves by four-parameter logistic (4PL) analysis.

pUC19 plasmid DNA = assay: nuclease-like activity, plasmid DNA cleavage; format: biochemical
A2780 cell line = system: A2780 cell line; design: method as in PMID 32578983; details: 24 h incubation; cited from earlier work
518A2 melanoma cells = system: 518A2 melanoma cells; design: method as in PMID 23973682; details: 72 h incubation; cited from earlier work
U-87 MG glioblastoma = system: U-87 MG glioblastoma; design: method as in PMID 27936296; details: 72 h incubation; cited from earlier work
[15] = system: KB-V1/Vbl cervix carcinoma cells; design: method as in PMID 27936296; details: 72 h incubation; cited from earlier work
[16] = system: MCF-7/Topo breast adenocarcinoma cells; design: method as in PMID 27936296; details: 72 h incubation; cited from earlier work
DLD-1 colon carcinoma = system: DLD-1 colon carcinoma; design: method as in PMID 27936296; details: 72 h incubation; cited from earlier work
[17] = system: Panc-1 pancreas carcinoma cells; design: method as in PMID 27936296; details: 72 h incubation; cited from earlier work

| SMILES | proteolytically activated Casp-3 (verified by cleaved PARP-1) [1] | IC50 (osteosarcoma (HOS)) | IC50 [4] | IC50 [5] | IC50 [6] | IC50 [7] | IC50 [8] | IC50 [9] | IC50 [10] | inhibition of LPS-stimulated NF-κB/AP-1 activation [12] | ROS production, long term (THP-1 cells) | IC50 [13] | IC50 [14] | IC50 (A2780 cell line) | other results |
| --- | --- | --- | --- | --- | --- | --- | --- | --- | --- | --- | --- | --- | --- | --- | --- |
| N.N.[Cl][Pt][Cl] [cisplatin, reference compound] | detected | 30 ± 5.9 µM | > 80 µM | > 80 µM | 30.8 ± 1.8 µM | 26.3 ± 2.1 µM | > 80 µM | > 80 µM | 17.3 ± 1.9 µM | – | – | – | – | – | Annexin V +/PI + cells (late apoptotic/secondary necrotic) (A2780 cells [2]): 23.7 ± 2.0%; Annexin V +/PI − cells (early apoptotic) (A2780 cells [2]): 41.5 ± 0.8%; cells in the S phase of the cell cycle (A2780 cells [3]): 51.4 ± 2.2%; IC50 [11]: 4 to 32.6 µM |
| CC(C)=CCc1c2c(c3occ(-c4ccc(O)c(O)c4)c(=O)c3c1[O-])C=CC(C)(C)O2.CO.CO.O=[N+]([O-])[O-].[Cu+2].c1ccc(-c2ccccn2)nc1 [Complex 1, (3-(3,4-dihydroxyphenyl)-8,8-dimethyl-6-(3-methylbut-2-en-1-yl)-4H,8H-benzo[1,2-b:3,4-b′]dipyran-4-one-5-olato-κ^2O4:O5)(2,2′-bipyridine–κ^2N:N)copper(II) nitrate methanol disolvate] | – | 21.5 ± 1.4 µM | > 100 µM | 22.1 ± 1.9 µM | 23.8 ± 0.2 µM | 12.1 ± 1.5 µM | 5.6 ± 0.3 µM | 20.8 ± 1.5 µM | – | able to inhibit | elevated the ROS levels similarly as pyocyanin | 13.7 ± 7.4 µM | 4 ± 1.1 µM | – | plasmid DNA nicked to OC-form (pUC19 plasmid DNA; 10 µM, water-containing medium (10% DMF), 37 °C, 1 h): ca. 30%; DNA cleavage in the presence of ROS scavengers (KI, NaN3, DMSO) (pUC19 plasmid DNA; 0.66 mM H2O2, scavengers equimolar to complex): decreased by DMSO |
| c1ccc(-c2ccccn2)nc1 [bipy, 2,2′-bipyridine] | – | – | – | – | – | – | – | – | – | – | – | – | – | > 100 µM | – |
| c1cnc2c(c1)ccc1cccnc12 [phen, 1,10-phenanthroline] | – | – | – | – | – | – | – | – | – | – | – | – | – | > 100 µM | – |
| CC(C)=CCc1c2c(c3occ(-c4ccc(O)c(O)c4)c(=O)c3c1[O-])C=CC(C)(C)O2.CO.CO.O=[N+]([O-])[O-].[Cu+2].c1cnc2c(c1)ccc1cccnc12 [Complex 3, (3-(3,4-dihydroxyphenyl)-8,8-dimethyl-6-(3-methylbut-2-en-1-yl)-4H,8H-benzo[1,2-b:3,4-b′]dipyran-4-one-5-olato-κ^2O4:O5)(1,10-phenanthroline–κ^2N:N)copper(II) nitrate methanol disolvate] | detected | 3.5 ± 0.1 µM | > 100 µM | 13 ± 1.4 µM | 5.9 ± 0.6 µM | 5.8 ± 2.2 µM | 2.9 ± 1.2 µM | 3.5 ± 0.2 µM | – | no influence on the activity | highest pro-oxidant potential of all the complexes | 4.2 ± 1.9 µM | > 10 µM | – | levels of pro-caspase 3 (pro-Casp-3) [1]: dramatically decreased |
| O=c1c(-c2ccc(O)cc2)coc2cc(O)cc([O-])c12.O=c1c(-c2ccc(O)cc2)coc2cc(O)cc([O-])c12.[Cu+2] [[Cu(L)2], bis[3-(4-hydroxyphenyl)-7-hydroxy-4H-benzopyran-4-one-5-olato-κO^2] copper(II)] | – | – | – | – | – | – | – | – | 20.1 ± 0.7 µM | – | – | – | – | – | IC50 (518A2 melanoma cells): 10.9 ± 1.4 µM; IC50 (U-87 MG glioblastoma): 30.2 ± 5 µM; IC50 [15]: 8 ± 0.2 µM; IC50 [16]: 15 ± 1.5 µM; IC50 (DLD-1 colon carcinoma): 21.2 ± 1.8 µM; IC50 [17]: 16.9 ± 0.8 µM |
